pIC50: −log10 of the molar value. Results filed as inconclusive are left out. Calls of active or inactive are those of the source. No rule for the calls is given here.
The compounds below were run on Mycobacterium tuberculosis non-replicating, growth inhibition (assay: growth inhibition of non-replicating M. tuberculosis (AID 488890)).
Compound `c1ccc(-c2nnc(SCc3nnc(-c4cccs4)o3)o2)cc1` has a pIC50 of 5.23.
With `CCOc1ccc2nc(NC(=O)c3cnc(C)cn3)sc2c1` the pIC50 was 5.36.
With `O=C(NCc1ccc(Cl)cc1)c1n[nH]c([N+](=O)[O-])c1Cl` the IC50 was 13.9 µM (inactive).
With `Clc1ccc(Cc2nnc(-c3cccs3)o2)cc1` the pIC50 was > 7.00.
In the case of `Cc1ccnc(NC(=O)COc2ccc3c(c2)CCC3)c1`, the pIC50 was 5.77.
For `CN1C2CCC1/C(=C/c1ccccn1)C(=O)/C2=C\c1ccccn1`, the IC50 was 16.3 µM (inactive).
Work on `Cc1cc(C(=O)N/N=C/c2ccc([N+](=O)[O-])s2)n[nH]1` yielded a pIC50 of 5.48.
With `O=c1oc2ccccc2c2c1nc(C(F)(F)F)n2-c1ccccc1` the pIC50 was 5.70.
Compound `O=C(NCC(c1cccs1)N1CCOCC1)c1cc([N+](=O)[O-])cc([N+](=O)[O-])c1` (stereo not given) has a pIC50 of 5.53.
Compound `CCOC(=O)N1CCN(Cc2cc(Cl)c3cccnc3c2O)CC1` has a pIC50 of 5.45.
`CN1CCN(c2cc3c(cc2F)c(=O)c(C(=O)O)cn3CCF)CC1` gave a pIC50 of 5.12.
Compound `Brc1ccc(CSc2nnc(-c3ccco3)o2)cc1` has a pIC50 of 6.55.
In the case of `COc1ccc(C(=O)Cn2c(C)nc([N+](=O)[O-])c2Br)cc1`, the IC50 was 19.9 µM (inactive).
In the case of `c1ccc2cc(OCCCn3ccnc3)ccc2c1`, the IC50 was 16.5 µM (inactive).
Work on `CCc1nonc1NC(=O)COc1ccc(Cl)c(C)c1` yielded a pIC50 of 5.00.
`C/C(=N/NC(=O)c1ccco1)c1ccc(Br)s1` was tested, and the IC50 was 23 µM (inactive).
With `COc1n[nH]c(C(=O)Nc2cc(F)ccc2C)c1[N+](=O)[O-]` the IC50 was 12.4 µM (inactive).
`Cc1cc(C)cc(NC(=O)CCc2ccc(C)o2)c1` was tested, and the pIC50 was 5.85.
Compound `COc1ccc(/C=C/c2cc(-c3ccc(C)cc3)o[n+]2C)cc1` has a pIC50 of 5.33.
For `C#CCOc1coc(COC(=O)c2ccccc2)cc1=O`, the IC50 was 48.5 µM (inactive).
With `Cc1ccc(C(=O)c2cncc(Br)c2)cc1` the pIC50 was 5.03.
`CC(=O)N1CCN(C(=O)CC2OC(=O)c3ccccc32)CC1` (stereo not given) was tested, and the IC50 was 18.9 µM (inactive).
In the case of `Cc1cc(-c2c(C)[nH]n(-c3ccccc3)c2=O)n[nH]1`, the IC50 was 29.2 µM (inactive).
Work on `CN(O)/C=c1/ccc2c(n1)C(=O)C=CC=2` yielded a pIC50 of 5.72.
With `COCCCNC(=O)COC(=O)c1ccc(-c2nc3ccccc3s2)s1` the pIC50 was 5.27.
For `Nc1ccccc1Nc1ccccc1`, the pIC50 was 5.74.
`CCOC(=O)/C=C1\Nc2ccccc2OC1=O` was tested, and the pIC50 was 5.52.
`Oc1ccc(Cl)cc1CNCc1ccc(F)cc1` was tested, and the IC50 was 11.1 µM (inactive).
For `COC(=O)CCSCc1cn2cc(Cl)ccc2n1`, the IC50 was 32 µM (inactive).
Compound `CCCOc1ccc(C(=O)NNC(=S)NC(=O)c2ccco2)cc1` has a pIC50 of 5.42.
`O=C(N/N=C/c1c(O)ccc2ccccc12)c1ccc(Br)o1` was tested, and the pIC50 was > 7.00.
Work on `Fc1ccc(-c2nnc(-c3ccc(F)cc3)o2)cc1` yielded a pIC50 of 5.08.
In the case of `CCOC(=O)Nc1ccc2c(c1)N(C(=O)CCCl)c1ccccc1[S@]2=O`, the pIC50 was 5.43.
With `CCc1nnc(NC(=O)CN2CCN(c3ccccc3F)CC2)s1` the IC50 was 29.2 µM (inactive).
`O=C(NNC1=C(C(=O)C(F)(F)F)CCC1)c1ccccc1Cl` showed a pIC50 of 5.88.
In the case of `COc1cc(CNCCc2ccccc2)cc(Cl)c1OCc1ccccc1`, the pIC50 was 5.13.
With `CNC(C)C#Cc1ccc2oc3cc(C)c(C)cc3c(=O)c2c1` (stereo not given) the pIC50 was 5.12.
In the case of `COc1ccc(NC(=O)c2ccc(COCC(F)(F)C(F)F)cc2)cc1`, the IC50 was 12.6 µM (inactive).
In the case of `CC(=O)CC1(OC(C)=O)C(=O)N(C)c2ccccc21` (stereo not given), the IC50 was 21.5 µM (inactive).
`CN1/C(=C\C(=O)COC(=O)C2COc3ccccc3O2)C(C)(C)c2ccccc21` (stereo not given) gave a pIC50 of 5.24.
Compound `Cc1cnc(NC(=O)c2ccccn2)s1` has a pIC50 of 5.07.
In the case of `O=C1CCC/C(=N/Nc2ccc(Cl)cc2)C1`, the pIC50 was 5.43.
`O=C1NCC(O)=C1C=Nc1ccccc1O` showed a pIC50 of 5.20.
In the case of `O=C(COC(=O)c1ccccc1Cl)NCCC1=CCCCC1`, the IC50 was 14.1 µM (inactive).
With `O=C(COc1ccc2ccccc2c1)N1CCCC1` the IC50 was 14.7 µM (inactive).
In the case of `COc1ccc(C(O)CNc2ccc(C)cc2)cc1` (stereo not given), the IC50 was 43.2 µM (inactive).
In the case of `CC(C)Cn1c(N)c(C(=O)COC(=O)c2cnc(Cl)c(Cl)c2)c(=O)n(C)c1=O`, the IC50 was 12 µM (inactive).
In the case of `Sc1oc(-c2ccccc2)cc1C=Nc1ccccc1`, the IC50 was 26 µM (inactive).
In the case of `COc1cccc(NC(=O)COC(=O)Cc2ccc(Br)cc2)c1`, the IC50 was 12.7 µM (inactive).
In the case of `Cc1noc2ncnc(Sc3ccccc3Cl)c12`, the IC50 was 16.4 µM (inactive).
`OCC1(CCOc2ccccc2)CCN(Cc2cc(Cl)ccc2O)CC1` was tested, and the IC50 was 24.1 µM (inactive).
With `CN1/C(=C\C=N\NC(=O)c2cccnc2)C(C)(C)c2ccccc21` the IC50 was 46.5 µM (inactive).
`CCCCCCn1c(=O)c(C(=O)Nc2cnccn2)c(O)c2ccccc21` was tested, and the pIC50 was 5.62.
`CN1CCC(O)(c2cccs2)C(C(=O)c2cccs2)C1` (stereo not given) showed a pIC50 of 5.63.
`O=[N+]([O-])c1ccc(CSc2nnc(-c3cccnc3)o2)cc1` showed a pIC50 of 6.09.
`N#CC1=C(c2ccccc2)/C(=C/c2ccccc2)OC1=O` was tested, and the pIC50 was 5.55.
With `O=C(Nc1cccc(S(=O)(=O)N2CCCCC2)c1)c1ccc([N+](=O)[O-])o1` the pIC50 was 5.39.
`O=C1c2cccc3c([N+](=O)[O-])ccc(c23)C(=O)N1c1ccc(Cl)cn1` showed a pIC50 of 6.16.
With `Cc1ccnc(NS(=O)(=O)c2ccc(NC(=O)c3ccc([N+](=O)[O-])s3)cc2)n1` the pIC50 was 5.08.
Work on `O=C(Nc1nnc(-c2ccncc2)o1)c1ccc(Br)s1` yielded a pIC50 of 5.12.
For `Cc1cc2cc(CNC(=O)C3CCCC3)ccc2n1C`, the IC50 was 17.5 µM (inactive).
`CC1=Nc2ccccc2/C1=C/c1sc(=N)n(-c2nccs2)c1O` showed a pIC50 of 5.82.
With `C/C(=N\O)c1cc(Cl)ccc1O` the pIC50 was 5.62.
With `Cc1cc(=O)[nH]c(-n2nc(C)cc2C)n1` the pIC50 was 5.31.
With `COc1ccc(-n2c3c(cc(C(=O)NNc4ccccc4)c2=O)C(=O)CC(C)(C)C3)cc1` the IC50 was 17.8 µM (inactive).
`Fc1ccc(-c2nn(-c3ccccc3)cc2CNCc2ccccc2)cc1` showed a pIC50 of 5.06.
For `CC1CC(C)CN(CCOCCSc2ccc(Cl)cc2)C1` (stereo not given), the IC50 was 30.7 µM (inactive).
In the case of `Cc1ccc(S(=O)(=O)N2CCC(C(=O)OCc3ccccc3)CC2)cc1C`, the pIC50 was 5.01.
In the case of `Cc1cc(Cl)ccc1OCC(=O)NNC(=O)c1cnccn1`, the pIC50 was 5.22.
Work on `CS(=O)(=O)c1sc(C#N)c2c1C(=O)CC(c1ccccc1)C2` (stereo not given) yielded a pIC50 of 6.09.
For `CCCCNS(=O)(=O)c1ccc(OCC(=O)OC)cc1`, the IC50 was 15.6 µM (inactive).
Work on `O=C(OCC(=O)C12CC3CC(CC(C3)C1)C2)c1ccccn1` yielded a pIC50 of 5.03.
`CC(=O)Nc1nc2ccccc2n1Cc1ccc(Cl)cc1` showed a pIC50 of 5.71.
With `CN1CCN(C2Cc3ccccc3Sc3cc(C(F)(F)F)ccc32)CC1` (stereo not given) the IC50 was 12 µM (inactive).
In the case of `CNCc1ccccc1Sc1cc(O)ccc1O`, the pIC50 was 5.28.
With `O=C(COc1ccccc1)Nc1nnc(-c2ccc(Cl)cc2)o1` the IC50 was 21.9 µM (inactive).
For `Cc1nc2ccc(Cl)cc2nc(C)/c1=N\O`, the IC50 was 14.4 µM (inactive).
For `CCc1ccc(OCCCC(=O)NCc2ccco2)cc1`, the pIC50 was 5.29.
`Cc1cccc(N2CCN(C(=O)Cn3sc4nc(C)cc(C)c4c3=O)CC2C)c1` (stereo not given) gave a pIC50 of 5.57.
`CCN1CCN(Cc2cc(C(C)(C)C)c(O)c(C(C)(C)C)c2)CC1` showed a pIC50 of 5.46.
`Cc1cc(N2CCN(c3ccccc3)CC2)nc(-n2nc(C)cc2C)n1` showed a pIC50 of 5.20.
With `N=c1n(Cc2ccc(Cl)cc2)c2ccccc2n1CC(O)COc1ccccc1` (stereo not given) the IC50 was 13.5 µM (inactive).
For `CCOC(=O)COc1cc([N+](=O)[O-])cc2cccnc12`, the IC50 was 25.5 µM (inactive).
In the case of `O=C(OCC(=O)N1CCCC1)c1cc(Br)ccc1Cl`, the pIC50 was 5.16.
With `CC1=NN(C(=O)c2ccc(Br)cc2)C(O)(c2ccccc2)C1` (stereo not given) the pIC50 was 6.33.
